Entries after “also recorded” stand apart in the source; their conditions may differ. Ends that are not written are not given here.

The subject of one test is methionine N^α -acetyltransferase from S. cerevisiae. The test is described as follows: Effect of protein modification reagents on enzyme activity. The note with it: 0.5 mM. In kind it is biochemical, Saccharomyces cerevisiae. As to the method: (§1) N^α -acetyltransferase activity was determined as previously described [Lee et al., J. Biol. Chem. 263:14948-14955 (1988)]. Aliquots of the lysate or chromatographic fractions were added to 1.5 ml Eppendorf tubes containing a reaction mixture of 50 mM HEPES, pH 7.4, 150 mM KCl, 1 mM DTT, 25 μM [^3 H] acetyl coenzyme A (0.5 μCi) and 50 μM synthetic peptide with an adjusted final volume of 100 μl. The assay mixture was incubated at 30° C. for 30 min. The reaction was stopped by adding 17 μl of 0.5M acetic acid and chilled in an ice bath. The reaction samples were filtered through SP membrane discs (Cuno) (previously pre-swollen in 0.5M acetic acid), and then washed three times with 1 ml of 0.5M acetic acid on a Millipore 1225 sampling manifold. The partially dried membranes were placed in scintillation cocktail and counted with a Beckman LS 3801 scintillation counter. One unit of activity was defined as the amount of enzyme able to transfer 1 pmol of [^3 H] acetyl group from [^3 H] acetyl coenzyme A to synthetic peptide per min under standard enzyme assay conditions defined above.
In order to determine the possible catalytic role for different types of amino acid residues in the enzyme, various chemical modifications were carried out (Table 10). Yeast methionine acetyltransferase was incubated with each reagent at 30° C. for 15 min, dialyzed against 50 mM HEPES, pH 7.4, 150 mM, 1 mM DTT at 4° C. for 3 to 4 hr. The enzyme activity was determined under standard assay conditions using PAI (N=3), assayed as described above.
Take `O=C1CCC(=O)N1Br` [NBS, N-bromosuccinimide]: the “effect of reagent on M-N^α AT activity” value is reported as “partially inactivated the enzyme”.

Still in this test, the particulars now being: 5 mM.
As for `O=C1CCC(=O)N1Br` [NBS, N-bromosuccinimide], the “effect of reagent on M-N^α AT activity” value was “completely inactivated the enzyme”.

Staying with this test, now noted: concentration not given.
As to `CCOC(=O)OC(=O)OCC` [DEPC, diethyl pyrocarbonate], the “effect of reagent on M-N^α AT activity” value is “nearly complete inactivation”.

As to `C[S+](C)Cc1cc([N+](=O)[O-])ccc1O.[Br-]` [HNBS(CH3)2 -Br, dimethyl-(2-hydroxy-5-nitrobenzyl)sulfonium bromide], the “effect of reagent on M-N^α AT activity” value is “partially inactivated the enzyme”.

Take `CC(=O)n1ccnc1` [N-acetylimidazole]: the “effect of reagent on M-N^α AT activity” value is “without effect”.

In the case of `NO` [hydroxylamine], the “effect of reagent on M-N^α AT activity” value is given as “slowly inactivated the enzyme”.

The same test, now with this note: incubation 6 hr at room temperature with […] hydroxylamine; 250000 µM.
On to `NO` [hydroxylamine], for which the “original enzyme activity recovered after diethyl pyrocarbonate inactivation” value was ~ 50%.

The test is the same for the next values; noted with them: reagent 0.05 mM; 30° C. 15 min, then dialyzed; substrate PAI (N=3).
With `CCOC(=O)OC(=O)OCC` [DEPC, diethyl pyrocarbonate], the “Enzyme Activity (%)” value came to 59%.

The same test, now with this note: reagent 0.5 mM; 30° C. 15 min, then dialyzed; substrate PAI (N=3).
Consider `CCOC(=O)OC(=O)OCC` [DEPC, diethyl pyrocarbonate], for which the “Enzyme Activity (%)” value is on record as 0%.

Turning to `O=C1CCC(=O)N1Br` [NBS, N-bromosuccinimide], the “Enzyme Activity (%)” value is given as 30%.

Still in this test, the particulars now being: reagent 1.0 mM; 30° C. 15 min, then dialyzed; substrate PAI (N=3).
Turning to `C[S+](C)Cc1cc([N+](=O)[O-])ccc1O.[Br-]` [HNBS(CH3)2 -Br, dimethyl-(2-hydroxy-5-nitrobenzyl)sulfonium bromide], the “Enzyme Activity (%)” value amounted to 93%.

Regarding `CC(=O)n1ccnc1` [N-acetylimidazole], the “Enzyme Activity (%)” value came out at 100%.

The test is the same for the next values; noted with them: reagent 5.0 mM; 30° C. 15 min, then dialyzed; substrate PAI (N=3).
For the molecule `O=C1CCC(=O)N1Br` [NBS, N-bromosuccinimide], the “Enzyme Activity (%)” value came out at 0%.

The same test, now with this note: reagent 10.0 mM; 30° C. 15 min, then dialyzed; substrate PAI (N=3).
As for `C[S+](C)Cc1cc([N+](=O)[O-])ccc1O.[Br-]` [HNBS(CH3)2 -Br, dimethyl-(2-hydroxy-5-nitrobenzyl)sulfonium bromide], the “Enzyme Activity (%)” value was 62%.

With `CC(=O)n1ccnc1` [N-acetylimidazole], the “Enzyme Activity (%)” value turned out to be 93%.

In the next test the target is T1, AAA1 N^α -acetyltransferase (N^α -AT) (Saccharomyces cerevisiae, UniProt P07347+P12945).
T1 sequence (P12945 2-854 limits assumed): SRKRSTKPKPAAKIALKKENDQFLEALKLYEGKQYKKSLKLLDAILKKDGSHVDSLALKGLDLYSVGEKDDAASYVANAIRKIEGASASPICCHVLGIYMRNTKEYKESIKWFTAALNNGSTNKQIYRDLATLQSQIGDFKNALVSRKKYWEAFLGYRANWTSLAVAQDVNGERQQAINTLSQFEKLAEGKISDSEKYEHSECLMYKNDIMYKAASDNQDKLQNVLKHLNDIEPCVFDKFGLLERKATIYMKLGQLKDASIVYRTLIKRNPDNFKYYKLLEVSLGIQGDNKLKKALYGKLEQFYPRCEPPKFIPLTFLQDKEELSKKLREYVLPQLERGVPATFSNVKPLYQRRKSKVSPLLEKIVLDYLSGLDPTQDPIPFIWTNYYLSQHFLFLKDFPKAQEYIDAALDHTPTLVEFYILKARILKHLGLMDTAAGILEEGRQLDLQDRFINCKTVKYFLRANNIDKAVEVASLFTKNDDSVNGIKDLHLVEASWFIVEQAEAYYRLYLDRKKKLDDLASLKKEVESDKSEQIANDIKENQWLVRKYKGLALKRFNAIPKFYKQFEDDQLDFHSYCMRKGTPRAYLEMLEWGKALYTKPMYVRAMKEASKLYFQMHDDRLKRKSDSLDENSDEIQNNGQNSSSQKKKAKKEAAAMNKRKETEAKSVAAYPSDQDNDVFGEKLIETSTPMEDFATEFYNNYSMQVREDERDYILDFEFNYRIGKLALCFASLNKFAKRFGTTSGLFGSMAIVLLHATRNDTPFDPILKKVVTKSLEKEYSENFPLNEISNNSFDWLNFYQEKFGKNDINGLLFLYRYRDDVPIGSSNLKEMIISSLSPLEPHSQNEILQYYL
T1 sequence (P07347 1-238): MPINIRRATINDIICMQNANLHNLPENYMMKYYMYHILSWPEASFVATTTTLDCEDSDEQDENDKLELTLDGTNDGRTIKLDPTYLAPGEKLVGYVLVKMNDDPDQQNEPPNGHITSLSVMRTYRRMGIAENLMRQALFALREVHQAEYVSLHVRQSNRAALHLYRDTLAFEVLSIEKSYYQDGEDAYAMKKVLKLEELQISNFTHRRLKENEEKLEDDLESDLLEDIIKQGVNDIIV
Put plainly: Relative activity of N^α -AT for N^α -acetylation of synthetic peptides. In kind it is biochemical. Particulars: Table 6, influence of the amino terminal residue. The method, then:
as §1, with “-acetylt[…]” for “-acetyltransferase activity”
In order to compare the relative specificity and activity of the methionine N^α -acetylt[…] (M-N^α -AT) of the present invention with the specificity and activity of the AAA1 N^α -acetyltransferase (N^α -AT) of Lee, F.-J. S., et al., J. Bacteriol. 171, (1989), U.S. Patent Application of John A. Smith, and Fang-Jen S. Lee, filed Oct. 25, 1989, entitled "ISOLATION OF STRAINS OF SAC[…] ALTERED N^α -ACETYLT[…]" (which references have been incorporated herein by reference) synthetic peptides were prepared. These peptides were assessed for their ability to serve as substrates for the two enzymes. In Table 6, the effect of the amino terminal amino acid on activity is investigated; in Table 7, the effect of the penultimate amino terminal amino acid on activity is investigated.
“FIPETQKGVIFYESHGKLEYKDIP (FIPETQKGVIFYESHGKLEYKDIP)”: the “Activity (%) (mean activity ± S.D.) N^a -AT” value (“Activity (%) … -AT” for short) is given as 9 ± 2%.

Take “HIPETQKGVIFYESHGKLEYKDIP (HIPETQKGVIFYESHGKLEYKDIP; also: tritium label)”: the “Activity (%) … -AT” value was found to be 19 ± 2%.

Turning to “MIPETQKGVIFYESHGKLEYKDIP (MIPETQKGVIFYESHGKLEYKDIP)”, the “Activity (%) … -AT” value came out at 15 ± 2%.

For the molecule “PIPETQKGVIFYESHGKLEYKDIP (PIPETQKGVIFYESHGKLEYKDIP)”, the “Activity (%) … -AT” value amounted to 70 ± 4%.

Take “TIPETQKGVIFYESHGKLEYKDIP (TIPETQKGVIFYESHGKLEYKDIP)”: the “Activity (%) … -AT” value worked out at 103 ± 5%.

As to “VIPETQKGVIFYESHGKLEYKDIP (VIPETQKGVIFYESHGKLEYKDIP)”, the “Activity (%) … -AT” value was 69 ± 4%.

Regarding “YIPETQKGVIFYESHGKLEYKDIP (YIPETQKGVIFYESHGKLEYKDIP)”, the “Activity (%) … -AT” value worked out at 20 ± 2%.

In a further test the test system is methionine N^α -acetyltransferase from S. cerevisiae.
Test: not given
The format is biochemical, Saccharomyces cerevisiae. The note with it: 1 mM. The method, then:
as §1, with “counter.” for “counter. One unit of activity was defined as the amount of enzyme able to transfer 1 pmol of [^3 H] acetyl group from [^3 H] acetyl coenzyme A to synthetic peptide per min under standard enzyme assay conditions defined above.”
Yeast methionine acetyltransferase was incubated in the presence of various divalent cations at a room temperature for 5 min in 50 mM HEPES, pH 7.4 containing 1 mM DTT. The enzyme activity was determined under standard assay conditions using PAI (N=3), as described above.
In the case of `[Ca+2].[Cl-].[Cl-]` [CaCl2], the “effect of divalent cation on M-N^α AT activity” value (“effect of divalent cation” for short) is given as “had no effect”.

As to `[Mg+2]` [Mg^2+], the “effect of divalent cation” value is on record as “had no effect”.

Turning to `[Cl][Mn][Cl]` [MnCl2], the “effect of divalent cation” value is given as “had no effect”.

Staying with this test, now noted: concentration not given.
In the case of `[Ca+2].[Cl-].[Cl-]` [CaCl2], the “effect of ion or salt on M-N^α AT activity” value (“effect of ion or salt” below) is reported as “did not affect enzyme activity”.

Turning to `[Cl-].[Cl-].[Co+2]` [CoCl2], the “effect of ion or salt” value is “pronounced and concentration-dependent inhibition”.

Consider `O=S(=O)([O-])[O-].[Fe+2]` [FeSO4], for which the “effect of ion or salt” value is “pronounced and concentration-dependent inhibition”.

For `[Cl-].[Cl-].[Mg+2]` [MgCl2], the “effect of ion or salt” value is on record as “did not affect enzyme activity”.

In the case of `O=S(=O)([O-])[O-].[Mg+2]` [MgSO4], the “effect of ion or salt” value was “did not affect enzyme activity”.

Consider `[Cl][Mn][Cl]` [MnCl2], for which the “effect of ion or salt” value is listed as “did not affect enzyme activity”.

Still in this test, the particulars now being: concentration not given; listed as Cd^2+.
On to `[Cl][Cd][Cl]` [CdCl2], for which the “effect of ion or salt” value is “pronounced and concentration-dependent inhibition; also recorded: also inhibited”.

Staying with this test, now noted: salt 0.01 mM; 5 min room temperature, 50 mM HEPES pH 7.4, 1 mM DTT; substrate PAI (N=3).
Take `[Cl][Cd][Cl]` [CdCl2]: the “Enzyme Activity (%)” value is recorded as 103%.

As for `[Cl-].[Cl-].[Co+2]` [CoCl2], the “Enzyme Activity (%)” value is 106%.

Consider `O=S(=O)([O-])[O-].[Fe+2]` [FeSO4], for which the “Enzyme Activity (%)” value is recorded as 108%.

The same test, now with this note: salt 0.1 mM; 5 min room temperature, 50 mM HEPES pH 7.4, 1 mM DTT; substrate PAI (N=3).
In the case of `[Cl][Cd][Cl]` [CdCl2], the “Enzyme Activity (%)” value is given as 72%.

In the case of `[Cl-].[Cl-].[Co+2]` [CoCl2], the “Enzyme Activity (%)” value amounted to 95%.

As for `O=S(=O)([O-])[O-].[Fe+2]` [FeSO4], the “Enzyme Activity (%)” value is given as 93%.

Turning to `[Cl-].[Cl-].[Mg+2]` [MgCl2], the “Enzyme Activity (%)” value is on record as 105%.

In the case of `O=S(=O)([O-])[O-].[Mg+2]` [MgSO4], the “Enzyme Activity (%)” value is listed as 102%.

Take `[Cl][Mn][Cl]` [MnCl2]: the “Enzyme Activity (%)” value is 103%.

Still in this test, the particulars now being: salt 1 mM; 5 min room temperature, 50 mM HEPES pH 7.4, 1 mM DTT; substrate PAI (N=3).
Consider `[Ca+2].[Cl-].[Cl-]` [CaCl2], for which the “Enzyme Activity (%)” value worked out at 102%.

Consider `[Cl][Cd][Cl]` [CdCl2], for which the “Enzyme Activity (%)” value was found to be 0%.

Turning to `[Cl-].[Cl-].[Co+2]` [CoCl2], the “Enzyme Activity (%)” value is given as 38%.

Turning to `O=S(=O)([O-])[O-].[Fe+2]` [FeSO4], the “Enzyme Activity (%)” value was determined as 40%.

For the molecule `[Cl-].[Cl-].[Mg+2]` [MgCl2], the “Enzyme Activity (%)” value is 98%.

On to `O=S(=O)([O-])[O-].[Mg+2]` [MgSO4], for which the “Enzyme Activity (%)” value is reported as 97%.

`[Cl][Mn][Cl]` [MnCl2]: the “Enzyme Activity (%)” value was determined as 98%.

For the origin of these results see patent publication US5223421A, “Identification of methionine Nα-acetyltransferase” (The General Hospital Corporation, priority 1990, dated 1993).
